Data on two substances can be found in article PMC5897986 (Frontiers in Endocrinology, 2018).

As a reminder, the IC50 is the point on the concentration scale where inhibition reaches its midpoint.

Experiment [1] concerns metastatic, well- or moderately differentiated, non-functional enteropancreatic NET. As to conditions: patients, CLARINET trial, placebo 18 months; cited from earlier work. An excerpt: Somatostatin analogs (SSAs) are well-established antisecretory drugs with a favorable safety profile that have been used as first-line treatment to control hormone hypersecretion in functionally active neuroendocrine tumors (NET) for more than 30 years ([1], [2]). […] The relevance of SSAs in antiproliferative treatment has been a matter of debate for the past two decades.

Experiment [2] concerns SSTR-binding sites at the cell surface of UMC-11 cells. Kind of experiment: competitive [125I]-Tyr11-SST14 radioligand binding assay, UMC-11 cells. Also noted: species or system human. As to conditions: UMC-11 whole cells, 30 min at 37°C, unlabeled peptide 0.01 nM–10 µM, gamma counter; read-out: IC50, displacement of [125I]-Tyr11-SST14. How it is done:
(§1) Peptide iodination and radioligand-binding assays were performed as previously described ([21]). Briefly, 10 nmol Tyr^11-somatostatin-14 (Tyr^11–SST14, Bachem, Bubendorf, Switzerland) were iodinated by the chloramin T method ([22]) with 1 mCi carrier-free Na^125I (NEZ033L010MC, Perkin Elmer, Waltham, MA, USA) and purified by HPLC (Analytic HPLC 1200 Series, Agilent, Santa Clara, CA, USA) (see Figure S1 in Supplementary Material). For competitive radioligand binding assays, 40,000 cells were seeded in 96-well plates and grown overnight. The next day, cells were incubated in binding buffer (50 mM Hepes, pH 7.4, 5 mM MgCl2, 1 mM CaCl2, 0.5% w/v BSA, cOmplete protease inhibitors) containing 100,000 counts per minute (cpm) [^125I]-Tyr^11-SST14 and increasing concentrations of unlabeled peptide. After 30 min at 37°C, cells were washed with ice-cold washing buffer (50 mM Tris–HCl, pH 7.4, 125 mM NaCl, 0.05% w/v BSA), lysed with 1 N NaOH, transferred to vials, and measured in a gamma counter (Wallac 1470 Wizard, Perkin Elmer, Waltham, MA, USA). The obtained cpm values were analyzed with GraphPad Prism 5.04, and IC50 values were calculated by non-linear regression (one site—fit logIC50, least squares fit).

In experiment [3] the test system is SSTR-binding sites at the cell surface of BON cells. The experiment is described as follows: competitive [125I]-Tyr11-SST14 radioligand binding assay, BON cells. Details: species or system human. As to conditions: BON whole cells, 30 min at 37°C, unlabeled peptide 0.01 nM–10 µM, gamma counter; read-out: IC50, displacement of [125I]-Tyr11-SST14. How it is done:
as §1
A general note: Loss of bound radioactivity is the signal in a displacement assay; it reports binding, not function.

In experiment [4] the test system is SSTR-binding sites at the cell surface of LCC-18 cells. The experiment is described as follows: competitive [125I]-Tyr11-SST14 radioligand binding assay, LCC-18 cells. Details: species or system human. As to conditions: only background binding, unlabeled peptide 0.01 nM–10 µM. The protocol:
as §1

Experiment [5] relates to human SSTR2 in QGP-1-SSTR2 cells. Kind of experiment: microscopic SSTR2 internalization assay. The settings on record: QGP-1-SSTR2, 1 µM ligand, 30 min at 37°C, confocal microscopy. Format: cell-based. The protocol: (§2) Cells were grown on coverslips for at least 24 h. […] Cells were washed with PBS, fixated in 1:1 acetone/methanol for 2 min, and incubated with anti-SSTR2 primary antibody (sc365502, Santa Cruz Biotechnology, Dallas, TX, USA) diluted 1:50 in PBS overnight at 4°C. After washing with PBS, cells were incubated with a Cy3-conjugated goat anti-mouse secondary antibody (#115-165-146, Jackson ImmunoResearch, West Grove, PA, USA) diluted 1:1,000 in PBS for 1 h at room temperature. After washing with PBS, coverslips were briefly dipped into 96% ethanol, air-dried, and mounted on glass slides with Immu-Mount (Thermo Fisher Scientific, Waltham, MA, USA). Mounted cells were imaged using a confocal laser scanning microscope (LSM510, Carl Zeiss, Jena, Germany) using a helium–neon laser at 543 nm, LP560 emission filter, and 40× or 63× NeoFluar oil immersion objectives. RIN-1038-SSTR2-GFP cells were not immunostained after fixation, but otherwise treated the same. To visualize GFP fluorescence, an argon laser at 488 nm, LP505 emission filter was utilized on the same microscope.

Experiment [6] has as its system human SSTR2 in BON-SSTR2 cells. Kind of experiment: microscopic SSTR2 internalization assay. Format: cell-based. The settings on record: BON-SSTR2, 1 µM ligand, 30 min at 37°C, confocal microscopy. How it is done: as §2
Experiment [7] has as its system SSTR-binding sites at the cell surface of QGP-1 cells. Kind of experiment: competitive [125I]-Tyr11-SST14 radioligand binding assay, QGP-1 cells. Also noted: species or system human. The settings on record: only background binding, unlabeled peptide 0.01 nM–10 µM. The protocol:
as §1

Experiment [8] deals with SSTR-binding sites at the cell surface of H727 cells. Kind of experiment: competitive [125I]-Tyr11-SST14 radioligand binding assay, H727 cells. Also noted: species or system human. As to conditions: only background binding, unlabeled peptide 0.01 nM–10 µM. The protocol:
as §1

Take lanreotide: the median progression-free survival entry in experiment [1] was “not reached”.
With somatostatin-14, the values for the IC50 in experiment [2] and in experiment [3] were 700 ± 290 pM and 500 ± 160 pM, respectively. Besides, the “displacement of [125I]-Tyr11-SST14 binding” value in experiment [4], in experiment [7] and in experiment [8] was “no displacement” each time. Besides, the “SSTR2 internalization / redistribution” value in experiment [5] is on record as “functional, ligand-dependent SSTR2 internalization”; in experiment [6], “functional, ligand-dependent SSTR2 internalization”.
